Holding throughout (type): cell-based
The subject of one assay is Aβ-38. Briefly: MSD Human (6E10) Ab 3-PLEX elisa, conditioned media of 2B7 cells: Aβ-38. The note with it: for pIC50: Aβ-38 (superscript a). Here is the method:
(§1) Assays were conducted to determine the ability of a Compound of Formula I to modulate […], and Aβ-38.
(§2) Plates with capture antibodies were blocked for 1-2 hours at room temperature with 150 μL of the manufactures blocking reagent.
(§3) Conditioned Media: • Cultured 2B7 cells in 96 well plate with 250 uL of media per well until confluent; • Prepared serial dilutions of compounds in DMSO at 100× the final desired concentration; • Washed wells with 2B7 cells 1× with 250 uL of media; • Diluted DMSO stocks 1:100 into media: • Added 250 μL of media containing compounds (1% DMSO) to wells with 2B7 cells for 5 hours at 37° C.
(§4) Elisa Sample Prep: • Diluted conditioned media: 1 part media with 1% DMSO and 1 part blocking buffer; • 150 μL of the 250 μL of conditioned media were used.
(§5) […] CURVE SAMPLE PREP: Prepared per manufacturer's protocol (see above) • Seven point standard curve samples were prepared that contained Aβ-42, Aβ-40, and Aβ-38. The highest concentration of Aβ-42 and Aβ-3-38 was 3,000 pg/mL and the highest concentration of Aβ-40 was 10,000 pg/mL. Subsequent serial dilutions were 1:3 and the final composition of each sample was 1 part blocking buffer and 1 part cell medium containing 1% DMSO.
(§6) Overnight Sample Incubation: • Blocked plates are washed 5× with MSD wash buffer with a plate washer • 25 uL of detection antibody and blocker G reagent in MSD blocking solution is added • 25 uL of samples (1 part conditioned media containing 1% DMSO and 1 part MSD blocking buffer) are then added. • plates are incubated overnight at 4 degrees C. or 2 hours at room temp
(§7) Final Wash and Readout: • Wash wells 5× with MSD wash buffer • Added 150 μL 2×MSD read buffer • Read with MSD imager.
(§8) A-Beta peptide levels for each peptide are calculated from the standard curve using the MSD software provided with the MSD 2400 Imager. Percent vehicle values for each compound dosage were then calculated and fit to a 4 parameter curve generating IC50 values.

For another assay, the system named is Aβ-40. Briefly: MSD Human (6E10) Ab 3-PLEX elisa, conditioned media of 2B7 cells: Aβ-40. The note with it: for pIC50: Aβ-40 (superscript b); for inhibition at 20 µM / % Inh. (range): Aβ-40, 20 μM. Here is the method:
as §1, §2, §3, §4, §5, §6, §7, §8

The test system of another assay is Aβ-42. Briefly: MSD Human (6E10) Ab 3-PLEX elisa, conditioned media of 2B7 cells: Aβ-42. The conditions noted are these: for pIC50: Aβ-42 (superscript c). Here is the method:
as §1, §2, §3, §4, §5, §6, §7, §8

The mark [1] stands for this setting: Homo sapiens, read-out: 50% reduction value.
[2] abbreviates: Homo sapiens, read-out: IC50 range.

pIC50: −log10 of the molar value. Like-named read-outs stand apart in the source and are kept apart here. Some results are limits rather than exact numbers.

For `CC(=O)O[C@H](C(C)C)C1C[C@@H](C)[C@H]2C(O1)[C@H](O)[C@@]1(C)C3CC[C@H]4C(C)(C)[C@@H](O[C@H]5CN(C(=O)C(C)C)CCO5)CC[C@@]45C[C@@]35CC[C@]21C` (stereo partly drawn), the pIC50 with Aβ-38 (setting [1]), in the assay with Aβ-38 (setting [2]), with Aβ-40 (setting [1]), in the assay on Aβ-42 (setting [1]) and in the assay on Aβ-42 (setting [2]) was more than 6.00 throughout.
`COC(=O)NCC1C[C@@H](C)[C@H]2C(O1)[C@H](O)[C@@]1(C)C3CC[C@H]4C(C)(C)[C@@H](O)CC[C@@]45C[C@@]35CC[C@]21C` (stereo partly drawn): the pIC50 with Aβ-38 (setting [1]) is less than 5.00. Further, the inhibition at 20 µM was 25 to 75% with Aβ-40 (Homo sapiens) and 25 to 75% in the assay with Aβ-42 (Homo sapiens, Aβ-42, 20 μM).
Take `COC(=O)N(C)CC1C[C@@H](C)[C@H]2C(O1)[C@H](O)[C@@]1(C)C3CC[C@H]4C(C)(C)[C@@H](O)CC[C@@]45C[C@@]35CC[C@]21C` (stereo partly drawn): the pIC50 was 5.00 to 6.00 with Aβ-38 (setting [1]) and less than 5.00 with Aβ-40 (setting [1]). This molecule also came in with an inhibition at 20 µM with Aβ-42 (Homo sapiens, Aβ-42, 20 μM) of 25 to 75%.
For the molecule `C[C@@H]1CC(CNC(=O)N(C)C)OC2[C@H]1[C@@]1(C)CC[C@@]34C[C@@]35CC[C@H](O)C(C)(C)[C@@H]5CCC4[C@]1(C)[C@H]2O` (stereo partly drawn), in the assay on Aβ-38 (setting [1]), the pIC50 was less than 5.00. Besides, the inhibition at 20 µM is 25 to 75% in the assay on Aβ-40 (Homo sapiens) and less than 25% in the assay with Aβ-42 (Homo sapiens, Aβ-42, 20 μM).
Consider `C[C@@H]1CC(CN(C)C(=O)N(C)C)OC2[C@H]1[C@@]1(C)CC[C@@]34C[C@@]35CC[C@H](O)C(C)(C)[C@@H]5CCC4[C@]1(C)[C@H]2O` (stereo partly drawn), for which, in the assay with Aβ-38 (setting [1]), the pIC50 was 5.00 to 6.00. Further, the inhibition at 20 µM with Aβ-40 (Homo sapiens) lay in the range of 25 to 75%; in the assay on Aβ-42 (Homo sapiens, Aβ-42, 20 μM), 25 to 75%.
For `CC1CC(C(OC(=O)C2CC2)C(C)(C)O)OC2C1C1(C)CCC34CC35CCC(OC3CN(C6COC6)CCO3)C(C)(C)C5CCC4C1(C)C2O` (stereo not drawn), the pIC50 was 5.00 to 6.00 in the assay with Aβ-38 (read-out: 50% reduction value), more than 6.00 with Aβ-38 (read-out: IC50 range), 5.00 to 6.00 with Aβ-40 (read-out: 50% reduction value) and 5.00 to 6.00 in the assay on Aβ-42 (read-out: 50% reduction value).
As to `CC1CC(C(OC(=O)C2CCOC2)C(C)(C)O)OC2C1C1(C)CCC34CC35CCC(OC3CN(C6COC6)CCO3)C(C)(C)C5CCC4C1(C)C2O` (stereo not drawn), the pIC50 with Aβ-38 (read-out: 50% reduction value) was 5.00 to 6.00; in the assay with Aβ-38 (read-out: IC50 range) it was more than 6.00; in the assay on Aβ-40 (read-out: 50% reduction value), 5.00 to 6.00; with Aβ-42 (read-out: 50% reduction value), 5.00 to 6.00.
As for `CC1CC(C(OC(=O)CC2CC2)C(C)(C)O)OC2C1C1(C)CCC34CC35CCC(OC3CN(C6COC6)CCO3)C(C)(C)C5CCC4C1(C)C2O` (stereo not drawn), the pIC50 with Aβ-38 (read-out: 50% reduction value) is more than 6.00; with Aβ-38 (read-out: IC50 range), more than 6.00; in the assay with Aβ-40 (read-out: 50% reduction value), 5.00 to 6.00; with Aβ-40 (read-out: IC50 range), 5.00 to 6.00; with Aβ-42 (read-out: 50% reduction value) it was more than 6.00; in the assay with Aβ-42 (read-out: IC50 range), more than 6.00.
Consider `CCC1CC(C)C2C(O1)C(O)C1(C)C3CCC4C(C)(C)C(O)CCC45CC35CCC21C` (stereo not drawn), for which the “% Inh. (range)” value is reported as “E (% inhibition of 25-75%)” in the assay with Aβ-38 (Aβ-38, 20 μM); “E (% inhibition of 25-75%)” in the assay with Aβ-40; “F (% inhibition of <25%)” in the assay on Aβ-42 (Aβ-42, 20 μM).
On to `CC1CC(C2OCC(=O)OC2(C)C)OC2C1C1(C)CCC34CC35CCC(OC3CN(C6COC6)CCO3)C(C)(C)C5CCC4C1(C)C2O` (stereo not drawn), for which the pIC50 with Aβ-38 (read-out: 50% reduction value), with Aβ-40 (read-out: 50% reduction value) and in the assay on Aβ-42 (read-out: 50% reduction value) was 5.00 to 6.00 in each case.
On to `CC1CC(C(OC(=O)C2CCOCC2)C(C)(C)O)OC2C1C1(C)CCC34CC35CCC(OC3CN(C6COC6)CCO3)C(C)(C)C5CCC4C1(C)C2O` (stereo not drawn), for which the pIC50 is more than 6.00 in the assay with Aβ-38 (read-out: 50% reduction value); more than 6.00 in the assay with Aβ-38 (read-out: IC50 range); 5.00 to 6.00 in the assay on Aβ-40 (read-out: 50% reduction value); 5.00 to 6.00 in the assay with Aβ-40 (read-out: IC50 range); more than 6.00 in the assay with Aβ-42 (read-out: 50% reduction value).
With `COC1C2OC(C(OC(=O)C3CC3)C(C)(C)O)CC(C)C2C2(C)CCC34CC35CCC(OC3CNCCO3)C(C)(C)C5CCC4C12C` (stereo not drawn), the pIC50 in the assay on Aβ-38 (read-out: 50% reduction value) and in the assay on Aβ-42 (read-out: 50% reduction value) was 5.00 to 6.00 throughout. Also, in the assay with Aβ-40, the “% Inh. (range)” value is “E^b (20 μM) (% inhibition of 25-75%)”.
With `CO[C@@H](C1C[C@@H](C)[C@H]2C(O1)[C@H](O)[C@@]1(C)C3CC[C@H]4C(C)(C)[C@@H](O)CC[C@@]45C[C@@]35CC[C@]21C)C(C)(C)O` (stereo partly drawn), the pIC50 with Aβ-38 (setting [1]) and in the assay with Aβ-42 (setting [1]) was more than 6.00 each time. Further, the inhibition at 20 µM in the assay with Aβ-40 (Homo sapiens) fell in the range of 25 to 75%.

For the origin of these results see US20110251379A1, “COMPOUNDS USEFUL FOR TREATING NEURODEGENERATIVE DISORDERS” (Satori Pharmaceuticals, Inc., priority 2010, published 2011).
